Results reported in US8815863B2, “Compounds and therapeutic use thereof for protein kinase inhibition” (priority 2009, dated 2014).
Where two headings read alike, the source gives them in different places.

How the values were obtained:
[1] = Body weight of ovarian cancer transplanted nude mice; assay type: in vivo, nude mice BALB/c-nu; conditions: i.v.
Experimental: (§1) Starting from 11 days after tumor implant, the animals are administered the test compounds i.v. The animals are weighed every two days, and the tumor volume is measured. After 24 days from the beginning of test compound administration, the animals are killed and the tumors are isolated and weighed.

[2] = system: HT-29 Cell line; experiment: SRB cell multiplication test, sensitizing to cytotoxic antitumor drugs
Experimental: 3.2 Cell Lines: HT-29 Cell line (from ATCC).
Test Protocol: The effects of the compounds on cancer cell multiplication was measured using Sulforhodamine B (SRB). Specifically, log phase cells are inoculated into the holes of 96-hole culture plates, allowed to grow using the wall-adhesion procedure at 37° C. under 5% CO2. The test compound at 9 different concentrations were added, each concentration in duplicate, with appropriate saline water and cell-less controls. The cells are cultured for a further 72 hours, and fixed with TCA, and SRB is added for staining, and washed, and air-dried. After adding the Tris solution, the OD value was measured at 510 nm using a Spectra Max 190. The rate of inhibition is calculated according to the formula below: Rate of Inhibition=(ODcontrol−ODdrug)/ODcontrol×100%.
The IC50 is calculated based on the above ratios.

[3] = system: human ovarian cancer; experiment: Human ovarian cancer transplanted nude mice, combination with Gemcitabine; assay type: in vivo, nude mice BALB/c-nu
Experimental: The compound used for this test is XC608, shown above, and XC608-Cl is the chloride salt of XC608, 090208-1, also a whitish powder. AZD7762 is a yellow powder.
All of the above are dissolved in 5% glucose injectible solution and diluted to suitable concentrations. Control: Gemcitabine is obtained from Jiangsu Haosen Pharmaceuticals Co., Ltd., also dissolved to suitable concentration in saline solution.
Test animals: 30 nude mice BALB/c-nu, female, bw 18-20 g, supplied by B&K Universal Group Limited, Shanghai, China. Cancer cell lines: the human ovarian cell line is from a commercial source, transplanted onto nude mice, which were maintained by Shanghai Pharmaceutical Industry Research Institute.
The tumors from the ovarian cancer carrying nude mice is isolated and cut into 1-mm^3 pieces, which are then implanted subcutaneously to the test nude mice. After 10 days, the tumors grow to a size of about 0.1 cm^3. The test mice are randomly divided into 5 groups of six animals.
as §1
The tumor volume (TV) is measured and calculated.
Relative Tumor volume (RTV) is Vt/V0, wherein Vt is the tumor volume at the measurement time, while V0 is the tumor volume when drug administration was started.
A compound's antitumor activity is measured by the RTV growth rate, T/C (%), which is calculated as: T/C=Treatment RTC/Control Group RTC×100%.
If TC(%) is more than 60, then the treatment is considered to have no effect. Only when the TC is less than 60, an the difference is statistically significant would the treatment be considered to be effective.
Another measurement is rate of tumor inhibition, which is IR (%)=(control group tumor weight−treatment group tumor weight)/control group tumor weight×100%.

[4] = system: Human colon cancer HT-99; experiment: Human colon cancer HT-99 transplanted nude mice; assay type: in vivo; conditions: GCT 20 mg/kg ip, compound 1 15 mg/kg iv
Experimental: Some of the above compounds are tested in vitro or in vivo for their anti-cancer or anti-tumor activities, as well as cellular toxicity tests using SRB and MTT methods. The in vitro anti-cancer effects on human cancer HT-29 and mouse lung cancer cell 3LL are summarized in Table 1, and the effects on treating transplanted human colon cancer […] on nude mice are summarized in Table 2.

Nc1ccn([C@@H]2O[C@H](CO)[C@@H](O)C2(F)F)c(=O)n1 [Gemcitabine, gemcitabine]
Body Weight (no tumor) Dn ([1]; Dn, end of test): 22.65 g
Body Weight (with tumor) d0 ([1]; d0, start of administration): 21.38 g
Body Weight (with tumor) dn ([1]; dn, end of test): 25.50 g
IC50 ([2]; Homo sapiens, HT-29, 72 h, read-out: IC50 Drug alone): 70 nM
IC50 ([2]; read-out: IC50 +10 nM AZD7762, HT-29, SRB, 72 hours, drug +10 nM AZD7762): 30 nM
IC50 ([2]; read-out: IC50 +100 nM AZD7762, HT-29, SRB, 72 hours, drug +100 nM AZD7762): 5 nM
IC50 ([2]; read-out: IC50 +1 μM XC608, HT-29, SRB, 72 hours, drug +1 μM XC608): 3 nM
TV Dn ([3]; Dn, end of test, i.v.): 1734.05 ± 586.49 mm^3
RTV dn ([3]; Vt/V0 at dn): 12.07
TV d0 ([3]; d0, start of administration): 143.67 ± 44.38 mm^3
Tumor Weight dn ([3]; isolated tumors at dn): 2.85 g
Tumor RI % dn ([3]; rate of tumor inhibition by tumor weight versus control): 19.72%
T/C % Dn ([3]; treatment RTV/control RTV, *p < 0.05, **p < 0.01): 82.27%
TC (%) [4]: 45%
